Experimental data taken from patent US20210022342A1, “THE USE OF SAFENERS TO IMPROVE RESISTANCE OF RICE CROP TO HERBICIDES” (Adama Agan Ltd., priority 2018, published 2021).

Key:
Format in all cases: in vivo
mutant rice = assay: Regrowth of mutant rice under low and high light intensity
From the text: (§1) Four days after treatment, the tops of the plants were cut off so that approximately 2.5 cm of plant from the top of the soil remain. The plants were allowed to regrow for 3 days at which time the amount of regrowth was weighed by measuring the amount of fresh weight of tissue that regrew. Comparing the weight of regrowth of shoots after cutting indicates the level of phytotoxicity the herbicide had on the mutant rice plant and the increased level of resistance of the mutant rice to the herbicide when the herbicide was applied in combination with the safener.

[1] = tested on: HPPD resistant rice variety; assay: HPPD herbicides with isoxadifen, regrowth of HPPD resistant mutant rice
Protocol: The rice cultivar contains mutation(s) in the HPPD gene which makes the enzyme insensitive to mesotrione and/or tembotrione and/or isoxaflutole.
(§2) Seed of HPPD resistant rice variety is planted in a commercial greenhouse soil mix in 10×10×10 cm plastic pots. 250 mL of soil is put into each pot, then the seed is placed on top of the soil and the seed is covered with 100-150 mL of soil. Approximately 8-10 seeds are planted per pot. The pots are then watered with 100 mL of a mixture of Miracle Grow and Fertiplus (iron supplement). The pots are placed in the greenhouse (38° C./20° C. day/night, 14 h photoperiod with supplemental light). The average light intensity in the greenhouse was 150 μM/m^2/sec.
Plants are grown until 10 days after planting and then the pots are transferred to trays and plants are grown under water. Plants are treated when they reach the 3-5 leaf stage.
Generally, plants are treated with 50-250 g/ha of mesotrione or tembotrione or isoxaflutole through a moving nozzle spray system in a spray volume of 200 l/ha or 187 l/ha. Isoxadifen is tank mixed with the herbicide in the spray bottle. The weight ratio of the safener to the herbicide in the tank mix is from 1:1 to 1:5.
Four days after reatment, the tops of the plants are cut off to approximately 3 cm from the top of the soil. The plants are allowed to regrow for 7 days at which time the amount of regrowth is measured by cutting any growth above 3 cm above the top of soil and weighing the tissue that regrew.
Efficacy test is conducted to determine the effect of mesotrione on mutant rice in the presence of isoxadifen.
The weight the regrown shoot on mutant rice applied with mesotrione is compared with the weight of regrown shoot on mutant rice applied with mesotrione and isoxadifen at various rates.

[2] = tested on: ACCase inhibitor resistant rice seeds (ML0831265-01493 (ATCC deposit PTA-12933, mutation G2096S)); assay: Safener seed treatment with propaquizafop or quizalofop: regrowth of resistant rice
Protocol: (§3) Seeds of a proprietary ACCase resistant rice variety, i.e. RTA1, was used. RTA1, ML0831265-01493 (ATCC deposit PTA-12933, mutation G2096S) variety rice seeds were supplied by RiceTec. RTA1 rice cultivar contains a single mutation in the ACCase gene that confer ACCase resistance. The mutation makes the enzyme insensitive to quizalofop.
as §2, with “Mutant” for “Seed of HPPD resistant”, “seeds were” for “variety is”, “in” for “in a”, “was” for “is”, “seeds were” for “seed is”, “were” for “are”
Plants were grown until 10 days after planting and then the pots were transferred to trays and the plants were grown under water. :Plants were treated when they reached the 3-5 leaf stage. […]
as §1
The safeners were also applied in various w/w ratios of the ACCase inhibiting herbicides to the rice seeds.

[3] = tested on: mutant rice (ML0831265-01493, ATCC deposit PTA-12933, mutation G2096S); assay: Tank mixes of safeners with propaquizafop or quizalofop: regrowth of mutant rice
Protocol: as §3
as §2, with “Mutant” for “Seed of HPPD resistant”, “seeds were” for “variety is”, “in” for “in a”, “was” for “is”, “seeds were” for “seed is”, “were” for “are”
Plants were grown until 10 days after planting and then the pots were transferred to trays and the plants were grown under water. :Plants were treated when they reached the 3-5 leaf stage.
Safeners were tank mixed with the herbicide in the spray bottle.
as §1
The safeners were applied in various w/w ratios with the ACCase inhibiting herbicides to the rice plant.

[4] = tested on: herbicide resistant rice crop (G2096S substitution, ML0831265-01493); assay: Quizalofop dose response with or without isoxadifen, regrowth, herbicide resistant rice
Protocol: Four days after treatment, the tops of the plants were cut off so that approximately 2.5 cm of plant from the top of the soil remain. The plants were allowed to regrow for 3 days at which time the amount of regrowth was weighed by measuring the amount of fresh weight of tissue that regrew.
The improvement in regrowth was calculated by subtracting the regrowth from a) wild type rice and wild type rice with isoxadifen; b) herbicide resistant rice; and c) herbicide resistant rice and isoxadifen.
Calculations were done for each application rate of quizalofop. The efficacy of safener alone and mutation alone on decreasing herbicide effect/increasing herbicide resistance were calculated. The relative fresh weight re-growth is the percentage of activity (for Colby).
The re-growth data was implemented in curve and the synergistic effect was calculated.
in which E represents the percentage of regrowth expected for the application of safener on mutant rice crop at the defined doses of herbicide. X is the percentage of regrowth for the application of safener on wildtype rice crop at the defined doses of herbicide. Y is the percentage of regrowth for mutant rice crop at the defined doses of herbicide without safener application. When the percentage of regrowth observed for the application of safener on mutant rice crop at the defined doses of herbicide is greater than expected as calculated using the Colby equation, there is a synergistic effect.

[5] = tested on: wild type rice (Non-Traited Rice); assay: Quizalofop dose response with or without isoxadifen, regrowth, wild type rice; settings: calculated effect of safener alone, quizalofop 5.2 g/ha
weedy rice = assay: Regrowth of weedy rice after quizalofop ethyl; settings: at the rates tested
From the text: The amount of plant regrowth observed for the ACCase resistant rice is compared to the amount of regrowth observed for the weedy rice. The weedy rice was killed by quizalofop ethyl at the rates tested, so there was no regrowth.

[6] = isoxaflutole with isoxadifen vs same mutant rice not treated with isoxadifen
[7] = mesotrione with isoxadifen vs same mutant rice not treated with isoxadifen
[8] = tembotrione with isoxadifen vs same mutant rice not treated with isoxadifen

## O=C(O)C1=NOC(c2ccccc2)(c2ccccc2)C1 [Isoxadifen, isoxadifen]
Mutant rice; high light intensity, quizalofop with isoxadifen, any of the rates tested
  regrowth of the mutant rice: regrowth was not significant affected
Mutant rice; high light intensity, with safener, herbicide 0 g/ha
  Regrowth (mg FW): 540 mg FW
Mutant rice; low light intensity, 40 g/ha quizalofop with 100 g/ha isoxadifen
  reduction in growth of the mutant rice: less than 20%
Mutant rice; low light intensity, with safener, herbicide 0 g/ha
  Regrowth (mg FW): 183 mg FW
[1]; [6]
  level of resistance of the mutant rice to isoxaflutole: significantly increases the level of resistance
  phytotoxicity of isoxaflutole on the mutant rice: significantly reduces the phytotoxicity
[1]; [7]
  level of resistance of the mutant rice to mesotrione: significantly increases the level of resistance
  phytotoxicity of mesotrione on the mutant rice: significantly reduces the phytotoxicity
[1]; [8]
  level of resistance of the mutant rice to tembotrione: significantly increases the level of resistance
  phytotoxicity of tembotrione on the mutant rice: significantly reduces the phytotoxicity
[2]; propaquizafop, safener seed treatment 0.5 g/kg of seed
  Regrowth (fresh weight mg): 133 mg
[2]; propaquizafop, safener seed treatment 1 g/kg of seed
  Regrowth (fresh weight mg): 170 mg
[2]; propaquizafop, safener seed treatment 2 g/kg of seed
  Regrowth (fresh weight mg): 298 mg
[2]; quizalofop, safener seed treatment 0.5 g/kg of seed
  Regrowth (fresh weight mg): 165 mg
[2]; quizalofop, safener seed treatment 1 g/kg of seed
  Regrowth (fresh weight mg): 103 mg
[2]; quizalofop, safener seed treatment 2 g/kg of seed
  Regrowth (fresh weight mg): 80 mg
[3]; tank mix with propaquizafop 50 g/ha, safener 12.5 g/ha
  Regrowth (fresh weight mg): 38 mg
[3]; tank mix with propaquizafop 50 g/ha, safener 25 g/ha
  Regrowth (fresh weight mg): 258 mg
[3]; tank mix with propaquizafop 50 g/ha, safener 50 g/ha
  Regrowth (fresh weight mg): 310 mg
[3]; tank mix with propaquizafop 50 g/ha, safener 100 g/ha
  Regrowth (fresh weight mg): 488 mg
[3]; tank mix with quizalofop 40 g/ha, safener 12.5 g/ha
  Regrowth (fresh weight mg): 87 mg
[3]; tank mix with quizalofop 40 g/ha, safener 25 g/ha
  Regrowth (fresh weight mg): 285 mg
[3]; tank mix with quizalofop 40 g/ha, safener 50 g/ha
  Regrowth (fresh weight mg): 335 mg
[3]; tank mix with quizalofop 40 g/ha, safener 100 g/ha
  Regrowth (fresh weight mg): 462 mg

## CCOC(=O)[C@@H](C)Oc1ccc(Oc2cnc3cc(Cl)ccc3n2)cc1 [Quizalofop, quizalofop P-ethyl]
[4]; expected for mutant & safener, quizalofop 5.2 g/ha
  Calculated efficacy base on Colby (%): 63%
[4]; expected, compared to wildtype rice without safener
  additive effect of safener and mutation, increase in ED50: 5.1 fold
[4]; herbicide resistant rice with safener compared to wildtype rice without safener
  observed increase in ED50: 31.4 fold
[4]; mutant & safener, quizalofop 5.2 g/ha
  Observed efficacy (%): 92%
[4]; mutant alone, quizalofop 5.2 g/ha
  Efficacy at ED50 of mutant- 5.2 g/ha (%): 50%
[4]; mutant rice vs wildtype rice, no safener
  increase in tolerance to herbicide (ED50) by the mutation: 2.4 fold
[5]
  Efficacy at ED50 of mutant- 5.2 g/ha (%): 26%
Mutant rice; high light intensity (800-1000 uM/m2/sec), 40 g/ha quizalofop, no safener
  inhibition of growth of the mutant rice: no inhibition of growth
Mutant rice; high light intensity, 70 g/ha quizalofop, no safener
  reduction in growth of the mutant rice: over 80%
Mutant rice; high light intensity, no safener, herbicide 30 g/ha
  Regrowth (mg FW): 447 mg FW
Mutant rice; high light intensity, no safener, herbicide 40 g/ha
  Regrowth (mg FW): 533 mg FW
Mutant rice; high light intensity, no safener, herbicide 50 g/ha
  Regrowth (mg FW): 220 mg FW
Mutant rice; high light intensity, no safener, herbicide 60 g/ha
  Regrowth (mg FW): 107 mg FW
Mutant rice; high light intensity, no safener, herbicide 70 g/ha
  Regrowth (mg FW): 76.7 mg FW
Mutant rice; high light intensity, with safener (isoxadifen), herbicide 30 g/ha
  Regrowth (mg FW): 630 mg FW
Mutant rice; high light intensity, with safener (isoxadifen), herbicide 40 g/ha
  Regrowth (mg FW): 533 mg FW
Mutant rice; high light intensity, with safener (isoxadifen), herbicide 50 g/ha
  Regrowth (mg FW): 603 mg FW
Mutant rice; high light intensity, with safener (isoxadifen), herbicide 60 g/ha
  Regrowth (mg FW): 427 mg FW
Mutant rice; high light intensity, with safener (isoxadifen), herbicide 70 g/ha
  Regrowth (mg FW): 540 mg FW
Mutant rice; low light intensity (150 uM/m2/sec), 40 g/ha quizalofop, no safener
  reduction in growth of the mutant rice: 80%
Mutant rice; low light intensity, no safener, herbicide 30 g/ha
  Regrowth (mg FW): 30 mg FW
Mutant rice; low light intensity, no safener, herbicide 40 g/ha
  Regrowth (mg FW): 0 mg FW
Mutant rice; low light intensity, no safener, herbicide 50 g/ha
  Regrowth (mg FW): 0 mg FW
Mutant rice; low light intensity, no safener, herbicide 60 g/ha
  Regrowth (mg FW): 0 mg FW
Mutant rice; low light intensity, no safener, herbicide 70 g/ha
  Regrowth (mg FW): 0 mg FW
Mutant rice; low light intensity, with safener (isoxadifen), herbicide 30 g/ha
  Regrowth (mg FW): 117 mg FW
Mutant rice; low light intensity, with safener (isoxadifen), herbicide 40 g/ha
  Regrowth (mg FW): 100 mg FW
Mutant rice; low light intensity, with safener (isoxadifen), herbicide 50 g/ha
  Regrowth (mg FW): 150 mg FW
Mutant rice; low light intensity, with safener (isoxadifen), herbicide 60 g/ha
  Regrowth (mg FW): 50 mg FW
Mutant rice; low light intensity, with safener (isoxadifen), herbicide 70 g/ha
  Regrowth (mg FW): 30 mg FW
Weedy rice
  Effect on weedy rice (regrowth): killed
[2]; quizalofop, seeds without safener
  Regrowth (fresh weight mg): 107 mg
[3]; quizalofop 40 g/ha, no safener
  Regrowth (fresh weight mg): 70 mg
